Test results published in article PMC7766697, “Toxicological Screening of Four Bioactive Citroflavonoids: In Vitro, In Vivo, and In Silico Approaches” (Molecules, 2020).
Where “and” joins values, the source holds several entries; their conditions need not be identical. Identical values can stand only once. Like-named read-outs stand apart in the source and are kept apart here.

What was measured:
[1] = system: VERO cells; experiment: MTT-based cytotoxicity assay in VERO cells; format: cell-based, green Monkey; settings: 48 h, 125 to 750 µg/mL (QRT effect at 250–750 µg/mL)
Method: (§1) VERO and MDCK cell lines were acquired from American Type Culture Collection (ATCC, Manassas, VA, USA). […] In vitro cytotoxicity assay was performed on Madin-Darby Canine Kidney Epithelial Cells (MDCK) and green Monkey Kidney Cells (VERO) by MTT-based assay. Briefly, cells were seeded in 96-well plates at a density of 2.5 × 10^3 cells/well. […] The absorbance was measured after 45 min using a microplate reader (Multiskan Asent®) at a wavelength of 550 nm. The criteria for categorizing cytotoxicity against MDCK and VERO cells are based on the U.S. National Cancer Institute (NCI). The criteria comprise as follow: […] All results were expressed as mean ± standard error. The results from the in vivo and in vitro experiments were analyzed using software Origin® 8.0. […] The IC50 (half inhibitory concentration) values were calculated in Origin software®, (Northampton, MA, USA) and one-way ANOVA analysis was compared with cisplatin as the control.

[2] = system: MDCK cells; experiment: MTT-based cytotoxicity assay in MDCK cells; format: cell-based, Canine; settings: 48 h, 125 to 750 µg/mL (QRT effect at 250 and 500 µg/mL)
Method: as §1

[3] = system: Wistar rats; experiment: Acute oral toxicity, OECD Test No. 423 (mortality, signs, LD50, body weight); format: in vivo; settings: oral, 14 days
Method: Female Wistar rats (250 g b.w.) were used. These animals were obtained from Bioterium from División de Ciencias de la Salud at the Universidad de Quintana Roo. They were maintained under standard environmental conditions (22 ± 3 °C, 12 h/12 h light/dark cycle), and free access to standard rodent diet and water ad libitum. All animal procedures were conducted under our Federal Regulations for Animal Experimentation and Care and were approved by the Institutional Animal Care and Use Committee of the “Universidad Juárez Autónoma de Tabasco” university (Code:2017-001, Approved: October 2017). Rats were acclimatized for 1 week before the start of experimental procedures.
The half lethal dose (LD50) was estimated using the fixed-dose method described in OECD Guidelines for the Testing of Chemicals (Test No. 423: Acute Oral Toxicity-Class Method; OECD, 2001). […] This method allowed a step-by-step assay according to the chosen dose to begin the experiment. Subsequently, depending on the presence or absence of mortality, the decision to continue within the next step is taken, so fewer experimental animals should be used.
(§2) Rats used for this experiment were fasted for 8 h and were organized into two groups of three rats for each dose and each flavonoid. Likewise, the control group received isotonic 0.9% sodium chloride solution (dose: 5 mL/kg). All rats were closely observed for toxic symptoms and behavioral changes (sedation, hyperactivity, writhing, pruritus, feeding and drinking habits, general morphological changes, and bite legs) for 30 min and periodically 24 h post-administration. Animals were observed daily (14 days) and mortality rate recorded. A LD50 was estimated according to criteria of OECD guide 423.
The rats’ body weight in each group was determined and recorded before the treatment initiation and after 14 days. Changes in the body weight at the end of the 14 days were calculated. Once observation time was completed and to detect any adverse effect, blood samples were collected by cardiac puncture after the previous fasting of 8 h. […] In addition, organ weight was determined.

[4] = system: Wistar rats; format: in vivo
Method: as §2
The rats’ body weight in each group was determined and recorded before the treatment initiation and after 14 days. Changes in the body weight at the end of the 14 days were calculated. Once observation time was completed and to detect any adverse effect, blood samples were collected by cardiac puncture after the previous fasting of 8 h. For this purpose, rats were anesthetized by intraperitoneally 50 mg/kg sodium pentobarbital. The liver was carefully extracted, rinsed in normal saline, drained on blotting paper, and carefully examined for tissue lesions. In addition, organ weight was determined.
Rat blood samples were analyzed by a hematology auto-analyzer system (Sysmex XS-1000i®, SYSMEX®, Oak Ridge, TN, USA). The parameters quantified on this stage were: blood count-packed cell volume (PCV), red blood cell (RBC) count, hemoglobin (Hb), platelet count, white blood cell (WBC) count, mean cell hemoglobin concentration (MCHC), mean red cell volume (MCV), mean cell hemoglobin (MCH), prothrombin time (PT), and activated partial thromboplastin time (aPTT).

[5] = system: Wistar rats
[6] = system: panel of five cell lines; design: method as in PMID 28662177; settings: 5–50 µg/mL; cited from earlier work
[7] = MTT-based cytotoxicity assay in VERO cells; format: cell-based, green Monkey; settings: green monkey, MTT
Method: as §1

[8] = system: Swiss-albino mice; settings: cited from earlier work

C[C@@H]1O[C@@H](O[C@H]2[C@H](Oc3cc(O)c4c(c3)O[C@H](c3ccc(O)cc3)CC4=O)O[C@H](CO)[C@@H](O)[C@@H]2O)[C@H](O)[C@H](O)[C@H]1O [NAR, naringin]
percentage viability / growth of cells [1]: did not change the percentage of growth | percentage viability / growth of cells [2]: did not change the percentage of growth | weight gain / body weight vs control [3]: changed the body weight | Erythrocytes ([4]; rat, in vivo, po, 300 mg/kg): 7.79±0.27 106/µL | Hb ([4]; rat, in vivo, po, 300 mg/kg): 14.03 ± 0.38 g/dL | Hto ([4]; rat, in vivo, po, 300 mg/kg): 40.63±1.03% | Leukocytes ([4]; rat, in vivo, po, 300 mg/kg): 2.65±0.30 103/µL | MCH ([4]; rat, in vivo, po, 300 mg/kg): 18.03 ± 0.16 pg | MCV ([4]; rat, in vivo, po, 300 mg/kg): 54.40 ± 1.92 fL | Platelets ([4]; rat, in vivo, po, 300 mg/kg): 726.00±12.26 105/µL | RBCDW ([4]; rat, in vivo, po, 300 mg/kg): 16.16±0.58% | Erythrocytes ([4]; rat, in vivo, po, 2000 mg/kg): 7.41±0.11 106/µL | Hb ([4]; rat, in vivo, po, 2000 mg/kg): 13.67 ± 0.16 g/dL | Hto ([4]; rat, in vivo, po, 2000 mg/kg): 40.66±0.39% | Leukocytes ([4]; rat, in vivo, po, 2000 mg/kg): 4.45±0.98 103/µL | MCH ([4]; rat, in vivo, po, 2000 mg/kg): 18.43 ± 0.05 pg | MCHC ([4]; rat, in vivo, po, 2000 mg/kg): 33.50 ± 0.14 g/dL | MCV ([4]; rat, in vivo, po, 2000 mg/kg): 54.86 ± 0.38 fL | Platelets ([4]; rat, in vivo, po, 2000 mg/kg): 553.00±239.61 105/µL | RBCDW ([4]; rat, in vivo, po, 2000 mg/kg): 15.80±0.12% | ALB (albumin) ([5]; rat, in vivo, po, 300 mg/kg): 4.50 ± 0.02 g/dL | ALT ([5]; rat, in vivo, po, 300 mg/kg): 27.57 ± 0.62 IU/L | AST ([5]; rat, in vivo, po, 300 mg/kg): 144.58 ± 17.05 IU/L | DB (direct bilirubin) ([5]; rat, in vivo, po, 300 mg/kg): 0.012 ± 0.0009 mg/dL | GL (globulin) ([5]; rat, in vivo, po, 300 mg/kg): 1.97 ± 0.04 g/dL | GLU (glucose) ([5]; rat, in vivo, po, 300 mg/kg): 125.54 ± 14.59 mg/dL | IB (indirect bilirubin) ([5]; rat, in vivo, po, 300 mg/kg): 0.024 ± 0.0007 mg/dL | TB (total bilirubin) ([5]; rat, in vivo, po, 300 mg/kg): 0.037 ± 0.001 mg/dL | TP (total protein) ([5]; rat, in vivo, po, 300 mg/kg): 6.48 ± 0.04 g/dL | ALB (albumin) ([5]; rat, in vivo, po, 2000 mg/kg): 4.66 ± 0.16 g/dL | ALT ([5]; rat, in vivo, po, 2000 mg/kg): 38.59 ± 1.08 IU/L | AST ([5]; rat, in vivo, po, 2000 mg/kg): 128.26 ± 5.33 IU/L | DB (direct bilirubin) ([5]; rat, in vivo, po, 2000 mg/kg): 0.015 ± 0.001 mg/dL | GL (globulin) ([5]; rat, in vivo, po, 2000 mg/kg): 2.03 ± 0.05 g/dL | GLU (glucose) ([5]; rat, in vivo, po, 2000 mg/kg): 138.55 ± 10.48 mg/dL | IB (indirect bilirubin) ([5]; rat, in vivo, po, 2000 mg/kg): 0.025 ± 0.003 mg/dL | TB (total bilirubin) ([5]; rat, in vivo, po, 2000 mg/kg): 0.039 ± 0.004 mg/dL | TP (total protein) ([5]; rat, in vivo, po, 2000 mg/kg): 6.71 ± 0.14 g/dL | ALB/GL Ratio ([5]; rats, oral 300 mg/kg, after 14 days, plasma): 2.30 ± 0.05 | ALB/GL Ratio ([5]; rats, oral 2000 mg/kg, after 14 days, plasma): 2.32 ± 0.12 | cytotoxicity (mitochondrial membrane potential, cell membrane integrity, nuclear morphology) [6]: not cytotoxic

O=c1c(O)c(-c2ccc(O)c(O)c2)oc2cc(O)cc(O)c12 [QRT, Quercetin]
IC50 at 48 h [7]: 465 µM and 141 µg/mL | IC50 at 48 h ([7]; abstract, first value of 'respectively'): 219 ± 7.22 µM | percentage viability / growth of cells [1]: produced a decrease in the percentage viability | percentage viability / growth of cells [2]: caused significant differences in the rate of cell viability | MCV [4]: 56.45 ± 3.05 fL | PT [4]: 16.20 ± 2.00 s | Platelets [4]: 759.00±22.00 105/µL | RBCDW [4]: 17.95±0.45% | APTT ([4]; rat, in vivo, po, 50 mg/kg): 14.55 ± 0.25 s | Hb ([4]; rat, in vivo, po, 50 mg/kg): 14.55 ± 0.65 g/dL | Hto ([4]; rat, in vivo, po, 50 mg/kg): 45.50±2.30% | Leukocytes ([4]; rat, in vivo, po, 50 mg/kg): 3.65±0.60 103/µL | MCH ([4]; rat, in vivo, po, 50 mg/kg): 18.05 ± 0.85 pg | APTT ([4]; rat, in vivo, po, 300 mg/kg): 15.75 ± 1.45 s | Erythrocytes ([4]; rat, in vivo, po, 300 mg/kg): 8.12±0.32 106/µL | Hb ([4]; rat, in vivo, po, 300 mg/kg): 14.67 ± 0.45 g/dL | Hto ([4]; rat, in vivo, po, 300 mg/kg): 45.73±1.15% | Leukocytes ([4]; rat, in vivo, po, 300 mg/kg): 4.21±0.38 103/µL | MCH ([4]; rat, in vivo, po, 300 mg/kg): 18.07 ± 0.20 pg | MCV ([4]; rat, in vivo, po, 300 mg/kg): 56.37 ± 0.90 fL | PT ([4]; rat, in vivo, po, 300 mg/kg): 16.00 ± 2.65 s | Platelets ([4]; rat, in vivo, po, 300 mg/kg): 665.00±125.33 105/µL | RBCDW ([4]; rat, in vivo, po, 300 mg/kg): 16.80±0.20% | ALB (albumin) ([5]; rat, in vivo, po, 50 mg/kg): 3.88 ± 0.04 g/dL | ALB/GL Ratio ([5]; rat, in vivo, po, 50 mg/kg): 1.56 ± 0.087 | GL (globulin) ([5]; rat, in vivo, po, 50 mg/kg): 2.50 ± 0.14 g/dL | GLU (glucose) ([5]; rat, in vivo, po, 50 mg/kg): 119.67 ± 8.74 mg/dL | IB (indirect bilirubin) ([5]; rat, in vivo, po, 50 mg/kg): 0.036 ± 0.003 mg/dL | TB (total bilirubin) ([5]; rat, in vivo, po, 50 mg/kg): 0.08 ± 0.006 mg/dL | TP (total protein) ([5]; rat, in vivo, po, 50 mg/kg): 6.38 ± 0.15 g/dL | ALB (albumin) ([5]; rat, in vivo, po, 300 mg/kg): 3.63 ± 0.09 g/dL | ALB/GL Ratio ([5]; rat, in vivo, po, 300 mg/kg): 1.39 ± 0.15 | DB (direct bilirubin) ([5]; rat, in vivo, po, 300 mg/kg): 0.016 ± 0.004 mg/dL | GL (globulin) ([5]; rat, in vivo, po, 300 mg/kg): 2.84 ± 0.16 g/dL | GLU (glucose) ([5]; rat, in vivo, po, 300 mg/kg): 149.49 ± 5.00 mg/dL | IB (indirect bilirubin) ([5]; rat, in vivo, po, 300 mg/kg): 0.030 ± 0.006 mg/dL | TB (total bilirubin) ([5]; rat, in vivo, po, 300 mg/kg): 0.05 ± 0.003 mg/dL | TP (total protein) ([5]; rat, in vivo, po, 300 mg/kg): 6.48 ± 0.065 g/dL | alkaline phosphatase (ALP) ([8]; 128 or 450 mg/kg orally for 14 days): increased | AST ([8]; higher dose, orally for 14 days): declined | bilirubin ([8]; only at 128 mg/kg, orally for 14 days): also increased
